Measurements as given in patent publication US7511059B2, “Thiazolidinones, their production and use as pharmaceutical agents” (Schering Ag, priority 2005, dated 2009).

Assays:
[1] = test system: human MaTu breast tumor cells; experiment: Proliferation Assay; format: cell-based; details: 96 h, incubated 4 days, crystal violet, read-out: Inhibition of the Tumor Cell Proliferation (MaTu) IC50
Protocol: Cultivated human MaTu breast tumor cells were flattened out at a density of 5000 cells/measuring point in a 96-well multititer plate in 200 μl of the corresponding growth medium. After 24 hours, the cells of one plate (zero-point plate) were colored with crystal violet (see below), while the medium of the other plates was replaced by fresh culture medium (200 μl), to which the test substances were added at various concentrations (0 μm, as well as in the range of 0.01-30 μm; the final concentration of the solvent dimethyl sulfoxide was 0.5%). The cells were incubated for 4 days in the presence of test substances. The cell proliferation was determined by coloring the cells with crystal violet: the cells were fixed by adding 20 μl/measuring point of an 11% glutaric aldehyde solution for 15 minutes at room temperature. After three washing cycles of the fixed cells with water, the plates were dried at room temperature. The cells were colored by adding 100 μl/measuring point of a 0. 1% crystal violet solution (pH was set at 3 by adding acetic acid). After three washing cycles of the colored cells with water, the plates were dried at room temperature. The dye was dissolved by adding 100 μl/measuring point of a 10% acetic acid solution. The extinction was determined by photometry at a wavelength of 595 nm. The change of cell growth, in percent, was calculated by standardization of the measured values to the extinction values of the zero-point plate (=0%) and the extinction of the untreated (0 μm) cells (=100%).

Recombinant human Plk-1 = target: T1, Recombinant human Plk-1 (Homo sapiens, UniProt P53350); experiment: PLK Enzyme Assay; format: biochemical; details: biotinylated casein and 33P-γ-ATP as substrate, 90 minutes at room temperature, read-out: PLK-1 IC50 [nM] Inhibition
T1 construct: 6xHis; made in house; host or cells: baculovirus-infected Hi5 insect cells
T1 sequence (P53350 whole entry): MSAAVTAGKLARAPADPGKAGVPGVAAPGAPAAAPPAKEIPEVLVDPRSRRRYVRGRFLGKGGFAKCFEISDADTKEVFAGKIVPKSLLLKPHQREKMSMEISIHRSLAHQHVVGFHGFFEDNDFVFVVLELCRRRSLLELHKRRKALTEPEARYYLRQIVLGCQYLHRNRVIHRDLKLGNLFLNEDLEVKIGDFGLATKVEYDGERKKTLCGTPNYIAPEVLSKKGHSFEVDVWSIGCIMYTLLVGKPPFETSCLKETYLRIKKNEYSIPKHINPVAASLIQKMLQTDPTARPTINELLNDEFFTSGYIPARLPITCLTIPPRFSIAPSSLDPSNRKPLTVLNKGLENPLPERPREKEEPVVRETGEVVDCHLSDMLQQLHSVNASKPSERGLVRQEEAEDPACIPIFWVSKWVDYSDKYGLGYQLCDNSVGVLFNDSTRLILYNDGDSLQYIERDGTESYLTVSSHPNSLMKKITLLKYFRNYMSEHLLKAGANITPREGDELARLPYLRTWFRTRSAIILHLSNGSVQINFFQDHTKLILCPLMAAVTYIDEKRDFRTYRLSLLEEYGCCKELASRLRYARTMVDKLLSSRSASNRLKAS
Protocol: Recombinant human Plk-1 (6× His) was purified from baculovirus-infected insect cells (Hi5).
10 ng of (produced in a recombinant manner and purified) PLK enzyme is incubated for 90 minutes at room temperature with biotinylated casein and 33P-γ-ATP as a substrate in a volume of 15 μl in 384-well Greiner small-volume microtiter plates (final concentrations in the buffer: 660 ng/ml of PLK; 0.7 lmol of casein, 0.5 gmol of ATP incl. 400 nCi/ml of 33P-γ-ATP; 10 mmol of MgCl2, 1 mmol of MnCl2; 0.01% NP40; 1 mmol of DTT, protease inhibitors; 0.1 mmol of Na2VO3 in 50 mmol of HEPES, pH 7.5). To complete the reaction, 5 μl of stop solution (500 μmol of ATP; 500 mmol of EDTA; 1% Triton X100; 100 mg/ml of streptavidin-coated SPA beads in PBS) is added. After the microtiter plate is sealed by film, the beads are sedimented by centrifuging (10 minutes, 1500 rpm). The incorporation of 33P-γ-ATP in casein is intended as a measurement of enzyme activity by β-counting.
Test substances are used in various concentrations (0 μmol, as well as in the range of 0.01-30 μmol). The final concentration of the solvent dimethyl sulfoxide is 1.5% in all batches.

SMILES | IC50 [1] [nM] | IC50 (Recombinant human Plk-1) [nM]
CCn1c(=C(C#N)C2=NCC(C)O2)sc(=CNc2cccc(NC(=O)C(C)(C)C)c2)c1=O (mixture of isomers) [Example 15, N-(3-{[2-[1-Cyano-1-(5-methyl-4,5-dihydro-oxazol-2-yl)-meth-(E or Z)-ylidene]-3-ethyl-4-oxo-thiazolidin-(5-(E/Z))-ylidenemethyl]-amino}-phenyl)-2,2-dimethyl-propionamide] | 2100 | 55
CCn1c(=C(C#N)C2=NC(C)(C)CO2)sc(=CNc2cccc(NC(=O)COCCOC)n2)c1=O (mixture of isomers) [Example 37, N-(6-{[2-[1-Cyano-1-(4,4-dimethyl-4,5-dihydro-oxazol-2-yl)-meth-(E or Z)-ylidene]-3-ethyl-4-oxo-thiazolidin-(5-(E/Z))-ylidenemethyl]-amino}-pyridin-2-yl)-2-(2-methoxy-ethoxy)-acetamide] | 3600 | 69
CCn1c(=C(C#N)C2=N[C@@H](C)CO2)sc(=CNc2cccc(NC(=O)C(C)(C)C)c2)c1=O [Example 20, N-(3-{[2-[1-Cyano-1-((S)-4-methyl-4,5-dihydro-oxazol-2-yl)-meth-(E or Z)-ylidene]-3-ethyl-4-oxo-thiazolidin-(5-(E/Z))-ylidenemethyl]-amino-phenyl)-2,2-dimethyl-propionamide] | 3200 | 140

The next compounds have a lower IC50 [1] than those just listed; values first:

IC50 [1] [nM] | IC50 (Recombinant human Plk-1) [nM] | SMILES
1200 | 24 | CCNc1cc(NC=c2sc(=C(C#N)C3=N[C@H]4CCC[C@H]4O3)n(CC)c2=O)ccn1 (mixture of isomers) [Example 38, [3-Ethyl-5-[1-(2-ethylamino-pyridin-4-ylamino)-meth-(E/Z)-ylidene]-4-oxo-thiazolidin-(2-(E or Z))-ylidene]-(3aS,6aR)-4,5,6,6a-tetrahydro-3aH-cyclopentaoxazol-2-yl-acetonitrile]
1200 | 53 | CCn1c(=C(C#N)C2=N[C@H]3CCC[C@H]3O2)sc(=CNc2cccc(NC(=O)C(C)(C)O)c2)c1=O (mixture of isomers) [Example 31, N-(3-{[2-[(3aS,6aR)-1-Cyano-1-4,5,6,6a-tetrahydro-3aH-cyclopentaoxazol-2-yl-meth-(E or Z)-ylidene]-3-ethyl-4-oxo-thiazolidin-(5-(E/Z))-ylidenemethyl]-amino}-phenyl)-2-hydroxy-2-methyl-propionamide]
